In PubChem BioAssay AID256 (DTP/NCI, 2004):
Values joined by “and” are separate entries in the source; they are usually repeats but may differ in a detail not shown here. Equal values may be shown once. Inconclusive results and toxic doses are left out. Non-standard residues stand in square brackets, D forms with d. Residues, ends and D or L forms follow the SMILES beside them. ξ: configuration not given here. *: point of attachment. Hexanoyl = CCCCCC(=O)*; ξP = O=C(O)C1CCCN1; Ava = NCCCCC(=O)O

Tested on: CD2F1 mice, L1210 leukemia ip, survival T/C
Experiment: NCI In Vivo Anticancer Drug Screen. Data for tumor model L1210 Leukemia (intraperitoneal) in CD2F1 (CDF1) mice
Conditions: endpoint: mean survival time, higher = longer survival
Procedure, shortened: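 In this screen, transplantable tumors were grown in mice given either the compound or its vehicle. Results were expressed as the treated measurement relative to the control measurement.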

[1] = dose: 100.0 mg/kg/injection, schedule: Q04DX003 (ip), vehicle: saline with Tween-80
[2] = dose: 200.0 mg/kg/injection, schedule: Q04DX003 (ip), vehicle: saline with Tween-80
[3] = dose: 400.0 mg/kg/injection, schedule: Q04DX003 (ip), vehicle: saline with Tween-80
[4] = dose: 50.0 mg/kg/injection, schedule: Q01DX009 (ip), vehicle: saline with Tween-80
[5] = dose: 100.0 mg/kg/injection, schedule: Q01DX009 (ip), vehicle: saline with Tween-80
[6] = dose: 200.0 mg/kg/injection, schedule: Q01DX009 (ip), vehicle: saline with Tween-80
[7] = dose: 100.0 mg/kg/injection, schedule: Q04DX003 (ip), vehicle: saline
[8] = dose: 200.0 mg/kg/injection, schedule: Q04DX003 (ip), vehicle: saline

**Q.** What does the source list for `CC(=O)NC(CCC(=O)C=[N+]=N)C(=O)O` (stereo unspecified)?
**A.** T/C (dose: 0.01 mg/kg/injection, schedule: Q03HX016 (ip), vehicle: saline): 97 % of control; T/C (dose: 0.03 mg/kg/injection, schedule: Q03HX008 (ip), vehicle: saline): 95 % of control; T/C (dose: 0.04 mg/kg/injection, schedule: Q03HX016 (ip), vehicle: saline): 97 % of control; T/C (dose: 0.06 mg/kg/injection, schedule: Q03HX008 (ip), vehicle: saline): 97 % of control; T/C (dose: 0.06 mg/kg/injection, schedule: Q03HX016 (ip), vehicle: saline): 94 % of control; T/C (dose: 0.13 mg/kg/injection, schedule: Q01DX005 (iv), vehicle: saline): 98 % of control; T/C (dose: 0.13 mg/kg/injection, schedule: Q01DX009 (ip), vehicle: saline): 103 % of control; T/C (dose: 0.13 mg/kg/injection, schedule: Q01DX009 (oral), vehicle: saline): 102 % of control; T/C (dose: 0.13 mg/kg/injection, schedule: Q03HX008 (ip), vehicle: saline): 104 % of control; T/C (dose: 0.13 mg/kg/injection, schedule: Q03HX016 (ip), vehicle: saline): 106 % of control; T/C (dose: 0.13 mg/kg/injection, schedule: Q03HX024 (ip), vehicle: saline): 90 % of control; T/C (dose: 0.13 mg/kg/injection, schedule: Q04DX003 (ip), vehicle: saline): 101 % of control; T/C (dose: 0.13 mg/kg/injection, schedule: Q08DX002 (ip), vehicle: saline): 94 % of control; T/C (dose: 0.25 mg/kg/injection, schedule: Q01DX001 (ip), vehicle: saline): 92 % of control; T/C (dose: 0.25 mg/kg/injection, schedule: Q01DX001 (iv), vehicle: saline): 103 % of control; T/C (dose: 0.25 mg/kg/injection, schedule: Q01DX005 (iv), vehicle: saline): 106 % of control; T/C (dose: 0.25 mg/kg/injection, schedule: Q01DX009 (ip), vehicle: saline): 112 % of control; T/C (dose: 0.25 mg/kg/injection, schedule: Q01DX009 (oral), vehicle: saline): 113 % of control; T/C (dose: 0.25 mg/kg/injection, schedule: Q03HX008 (ip), vehicle: saline): 115 % of control and 122 % of control; T/C (dose: 0.25 mg/kg/injection, schedule: Q03HX024 (ip), vehicle: saline): 100 % of control; T/C (dose: 0.25 mg/kg/injection, schedule: Q04DX003 (ip), vehicle: saline): 101 % of control; T/C (dose: 0.25 mg/kg/injection, schedule: Q08DX002 (ip), vehicle: saline): 97 % of control; T/C (dose: 0.4 mg/kg/injection, schedule: Q01DX009 (ip), vehicle: water): 166 % of control; T/C (dose: 0.5 mg/kg/injection, schedule: Q01DX001 (ip), vehicle: saline): 97 % of control; T/C (dose: 0.5 mg/kg/injection, schedule: Q01DX001 (iv), vehicle: saline): 103 % of control; T/C (dose: 0.5 mg/kg/injection, schedule: Q01DX005 (iv), vehicle: saline): 118 % of control; T/C (dose: 0.5 mg/kg/injection, schedule: Q04DX003 (ip), vehicle: saline): 106 % of control; T/C (dose: 0.5 mg/kg/injection, schedule: Q08DX002 (ip), vehicle: saline): 104 % of control; T/C (dose: 0.8 mg/kg/injection, schedule: Q01DX009 (ip), vehicle: water): 115 % of control; T/C (dose: 1.0 mg/kg/injection, schedule: Q01DX001 (ip), vehicle: saline): 106 % of control; T/C (dose: 1.0 mg/kg/injection, schedule: Q01DX001 (iv), vehicle: saline): 107 % of control; T/C (dose: 1.0 mg/kg/injection, schedule: Q01DX001 (oral), vehicle: saline): 110 % of control; T/C (dose: 1.0 mg/kg/injection, schedule: Q01DX009 (ip), vehicle: saline): 119 % of control; T/C (dose: 1.0 mg/kg/injection, schedule: Q01DX009 (oral), vehicle: saline): 115 % of control; T/C (dose: 1.0 mg/kg/injection, schedule: Q03HX016 (ip), vehicle: saline): 151 % of control; T/C (dose: 1.0 mg/kg/injection, schedule: Q03HX024 (ip), vehicle: saline): 181 % of control; T/C (dose: 1.0 mg/kg/injection, schedule: Q04DX003 (ip), vehicle: saline): 117 % of control; T/C (dose: 1.0 mg/kg/injection, schedule: Q06HX012 (ip), vehicle: saline): 158 % of control; T/C (dose: 1.0 mg/kg/injection, schedule: Q08DX002 (ip), vehicle: saline): 111 % of control; T/C (dose: 2.0 mg/kg/injection, schedule: Q01DX001 (ip), vehicle: saline): 104 % of control and 109 % of control; T/C (dose: 2.0 mg/kg/injection, schedule: Q01DX001 (iv), vehicle: saline): 107 % of control; T/C (dose: 2.0 mg/kg/injection, schedule: Q01DX001 (oral), vehicle: saline): 120 % of control; T/C (dose: 2.0 mg/kg/injection, schedule: Q01DX005 (ip), vehicle: saline): 109 % of control; T/C (dose: 2.0 mg/kg/injection, schedule: Q01DX005 (iv), vehicle: saline): 120 % of control; T/C (dose: 2.0 mg/kg/injection, schedule: Q03HX016 (ip), vehicle: saline): 152 % of control; T/C (dose: 2.0 mg/kg/injection, schedule: Q03HX024 (ip), vehicle: saline): 108 % of control; T/C (dose: 2.0 mg/kg/injection, schedule: Q04DX003 (ip), vehicle: saline): 121 % of control and 124 % of control; T/C (dose: 2.0 mg/kg/injection, schedule: Q06HX008 (ip), vehicle: saline): 156 % of control; T/C (dose: 2.0 mg/kg/injection, schedule: Q06HX012 (ip), vehicle: saline): 151 % of control; T/C (dose: 2.0 mg/kg/injection, schedule: Q08DX002 (ip), vehicle: saline): 113 % of control and 107 % of control; T/C (dose: 4.0 mg/kg/injection, schedule: Q01DX001 (ip), vehicle: saline): 112 % of control; T/C (dose: 4.0 mg/kg/injection, schedule: Q01DX001 (iv), vehicle: saline): 117 % of control; T/C (dose: 4.0 mg/kg/injection, schedule: Q01DX001 (oral), vehicle: saline): 115 % of control; T/C (dose: 4.0 mg/kg/injection, schedule: Q01DX005 (ip), vehicle: saline): 102 % of control; T/C (dose: 4.0 mg/kg/injection, schedule: Q06HX008 (ip), vehicle: saline): 152 % of control; T/C (dose: 4.0 mg/kg/injection, schedule: Q06HX012 (ip), vehicle: saline): 113 % of control; T/C (dose: 4.0 mg/kg/injection, schedule: Q08DX002 (ip), vehicle: saline): 111 % of control; T/C (dose: 8.0 mg/kg/injection, schedule: Q01DX001 (ip), vehicle: saline): 116 % of control; T/C (dose: 8.0 mg/kg/injection, schedule: Q01DX001 (oral), vehicle: saline): 116 % of control; T/C (dose: 8.0 mg/kg/injection, schedule: Q08DX002 (ip), vehicle: saline): 114 % of control; T/C (dose: 16.0 mg/kg/injection, schedule: Q04DX003 (ip), vehicle: saline): 154 % of control

**Q.** Which results are given for `CN1CC(O)(C(O)C(O)C(O)CO)SC1=S` (stereo unspecified)?
**A.** T/C (dose: 100.0 mg/kg/injection, schedule: Q01DX009 (ip), vehicle: saline sonified): 98 % of control; T/C [1]: 100 % of control; T/C (dose: 200.0 mg/kg/injection, schedule: Q01DX009 (ip), vehicle: saline sonified): 101 % of control; T/C [2]: 93 % of control; T/C (dose: 400.0 mg/kg/injection, schedule: Q01DX009 (ip), vehicle: saline sonified): 109 % of control; T/C [3]: 89 % of control

**Q.** Which results are given for `CCOC/C=C/C(C)(C)C`?
**A.** T/C [4]: 102 % of control; T/C [5]: 102 % of control; T/C [6]: 97 % of control

**Q.** What does the source list for `CCCC/C=C/C(O)CC` (stereo unspecified)?
**A.** T/C [1]: 98 % of control; T/C [2]: 102 % of control; T/C [3]: 96 % of control

**Q.** For `NCc1ncn[nH]1`, which T/C [7] is on record?
**A.** 100 % of control

**Q.** And the T/C [8]?
**A.** 96 % of control

**Q.** How did the T/C [7] turn out when `CCCCCC(=O)NCC(=O)N1CCCC1C(=O)NCCCCC(=O)OC` (stereo unspecified) (Hexanoyl-Gly-[ξP]-[Ava]-OMe) was run?
**A.** 98 % of control

**Q.** What about the T/C [8] of the same compound?
**A.** 107 % of control

**Q.** What about the T/C (dose: 400.0 mg/kg/injection, schedule: Q04DX003 (ip), vehicle: saline) of the same compound?
**A.** 103 % of control

**Q.** What does the source list for `O=C1C=CC(=O)N1c1ccc(Oc2ccc(Cl)cc2)cc1`?
**A.** T/C [4]: 103 % of control; T/C [5]: 107 % of control; T/C [6]: 88 % of control

**Q.** Which T/C (dose: 75.0 mg/kg/injection, schedule: Q01DX001 (ip), vehicle: saline) does the source give for `CN(C)/C=C/C#N` here?
**A.** 102 % of control

**Q.** Which T/C (dose: 100.0 mg/kg/injection, schedule: Q01DX001 (ip), vehicle: Klucel (hydroxypropylcellulose) (HPC)) does the source give for `S=C1Nc2ccccc2CS1` here?
**A.** 105 % of control

**Q.** And the T/C (dose: 200.0 mg/kg/injection, schedule: Q01DX001 (ip), vehicle: Klucel (hydroxypropylcellulose) (HPC))?
**A.** 102 % of control

**Q.** What about the T/C (dose: 400.0 mg/kg/injection, schedule: Q01DX001 (ip), vehicle: Klucel (hydroxypropylcellulose) (HPC)) of the same compound?
**A.** 103 % of control

**Q.** `O=c1cc(CBr)c2ccccc2[nH]1` was tested. Which T/C (dose: 25.0 mg/kg/injection, schedule: Q04DX003 (ip), vehicle: saline with Tween-80) did it give?
**A.** 103 % of control
